In patent publication US10112937B2, “P2X7 modulators and methods of use” (Janssen Pharmaceutica NV, priority 2013, dated 2018):

target: human P2X7 (Homo sapiens (Human), UniProt Q99572); assay: P2X7 antagonism in human PBMCs (IL-1β release after LPS + Bz-ATP, ELISA); assay type: cell-based; settings: 10 μM test compound, human PBMCs, LPS + Bz-ATP
Sequence (Q99572 whole entry): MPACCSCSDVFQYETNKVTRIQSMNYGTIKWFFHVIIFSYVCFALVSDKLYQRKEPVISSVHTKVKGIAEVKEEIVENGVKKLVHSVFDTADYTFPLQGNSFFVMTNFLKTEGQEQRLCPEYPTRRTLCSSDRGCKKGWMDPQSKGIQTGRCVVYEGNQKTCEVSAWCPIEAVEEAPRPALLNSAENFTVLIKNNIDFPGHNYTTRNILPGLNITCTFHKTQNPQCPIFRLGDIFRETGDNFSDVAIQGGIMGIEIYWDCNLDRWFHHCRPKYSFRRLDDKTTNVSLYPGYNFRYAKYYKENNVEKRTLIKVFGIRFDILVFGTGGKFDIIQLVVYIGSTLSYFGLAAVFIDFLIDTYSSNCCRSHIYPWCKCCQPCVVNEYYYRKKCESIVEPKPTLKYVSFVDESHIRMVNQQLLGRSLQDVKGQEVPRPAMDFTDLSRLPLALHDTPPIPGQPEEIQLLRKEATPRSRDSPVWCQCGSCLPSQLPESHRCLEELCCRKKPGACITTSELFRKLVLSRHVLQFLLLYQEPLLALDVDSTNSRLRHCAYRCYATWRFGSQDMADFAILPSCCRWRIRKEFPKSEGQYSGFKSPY

For `CCn1ccc(-n2nnc3c2CCN(C(=O)c2ccnc(C(F)(F)F)c2Cl)[C@H]3C)n1` [Example 411, (S)-(3-chloro-2-(trifluoromethyl)pyridin-4-yl)(1-(1-ethyl-1H-pyrazol-3-yl)-4-methyl-6,7-dihydro-1H-[1,2,3]triazolo[4,5-c]pyridin-5(4H)-yl)methanone], which “PBMC 10 μM (% control)” value is on record?
Its value is 69.6 % control.

How did the “PBMC 10 μM (% control)” value turn out when `C[C@H]1Cc2c(nnn2-c2ncc(O)cn2)CN1C(=O)c1ccnc(C(F)(F)F)c1F` [Example 429, (S)-(3-fluoro-2-(trifluoromethyl)pyridin-4-yl)(1-(5-hydroxypyrimidin-2-yl)-6-methyl-6,7-dihydro-1H-[1,2,3]triazolo[4,5-c]pyridin-5(4H)-yl)methanone] was run?
Its value is 2.3 % control.

same assay, conditions: human PBMCs, test compound 1 μM

For `O=C(c1cccc(Cl)c1Cl)N1CCc2c(-c3ccccc3)n[nH]c2C1` [Example 100, 6-[(2,3-Dichlorophenyl)carbonyl]-3-phenyl-4,5,6,7-tetrahydro-1H-pyrazolo[3,4-c]pyridine], which “PBMC 1 μM (% control)” value is on record?
Its value is 9.2 % control.

How did the “PBMC 1 μM (% control)” value turn out when `O=C(c1cccc(C(F)(F)F)c1F)N1CCc2c(nnn2-c2ccccn2)C1` [Example 123, (2-Fluoro-3-(trifluoromethyl)phenyl)(1-(pyridin-2-yl)-6,7-dihydro-1H-[1,2,3]triazolo[4,5-c]pyridin-5(4H)-yl)methanone] was run?
Its value is 22.0 % control.

With `O=C(c1cccc(Cl)c1Cl)N1CCc2c(nnn2-c2ccccc2)C1` [Example 62, 5-[(2,3-Dichlorophenyl)carbonyl]-1-phenyl-4,5,6,7-tetrahydro-1H-[1,2,3]triazolo[4,5-c]pyridine] as the compound, how does the “PBMC 1 μM (% control)” value read?
The value was 5.2 % control.

same assay, conditions: human PBMCs, test compound 10 μM

For `CC1Cc2c(nnn2-c2cc(F)ccn2)CN1C(=O)c1cccc(Cl)c1Cl` (centres unmarked) [Example 173, 5-[(2,3-Dichlorophenyl)carbonyl]-1-(4-fluoropyridin-2-yl)-6-methyl-4,5,6,7-tetrahydro-1H-[1,2,3]triazolo[4,5-c]pyridine], which “PBMC 10 μM (% control)” value is on record?
The value was 8.8 % control.

Which “PBMC 10 μM (% control)” value does the source give for `CC1CN(C(=O)c2cccc(Cl)c2Cl)Cc2nnn(-c3ccccc3)c21` (centres unmarked) [Example 244, (2,3-Dichlorophenyl)(7-methyl-1-phenyl-6,7-dihydro-1H-[1,2,3]triazolo[4,5-c]pyridin-5(4H)-yl)methanone] here?
The value was −2.3 % control.

For `O=C(c1cccc(Cl)c1Cl)N1CCc2c(nc(C(F)(F)F)n2-c2ccccc2)C1` [Example 58, 5-[(2,3-Dichlorophenyl)carbonyl]-1-phenyl-2-(trifluoromethyl)-4,5,6,7-tetrahydro-1H-imidazo[4,5-c]pyridine], which “PBMC 10 μM (% control)” value is on record?
The value was −2.0 % control.

`C[C@@H]1Cc2c(nnn2-c2ncc(F)cn2)CN1C(=O)c1ccc(F)c(Cl)c1Cl` (single isomer, unassigned) [Example 214, (6R*)-5-[(2,3-Dichloro-4-fluorophenyl)carbonyl]-1-(5-fluoropyrimidin-2-yl)-6-methyl-4,5,6,7-tetrahydro-1H-[1,2,3]triazolo[4,5-c]pyridine] was tested. Which “PBMC 10 μM (% control)” value did it give?
The value was 8.2 % control.

How did the “PBMC 10 μM (% control)” value turn out when `Cc1cccc(-n2nnc3c2CCN(C(=O)c2cccc(C(F)(F)F)c2F)[C@@H]3C)n1` (single isomer, unassigned) [Example 386, (R*)-(2-fluoro-3-(trifluoromethyl)phenyl)(4-methyl-1-(6-methylpyridin-2-yl)-6,7-dihydro-1H-[1,2,3]triazolo[4,5-c]pyridin-5(4H)-yl)methanone] was run?
The value was 107.5 % control.

With `CCOc1cccnc1-n1nnc2c1CCN(C(=O)c1cccc(C(F)(F)F)c1Cl)[C@H]2C` (single isomer, unassigned) [Example 317, (S*)-(2-chloro-3-(trifluoromethyl)phenyl)(1-(3-ethoxypyridin-2-yl)-4-methyl-6,7-dihydro-1H-[1,2,3]triazolo[4,5-c]pyridin-5(4H)-yl)methanone] as the compound, how does the “PBMC 10 μM (% control)” value read?
Its value is 4.8 % control.

How did the “PBMC 10 μM (% control)” value turn out when `CC1Cc2c(nnn2-c2ncccc2F)CN1C(=O)c1cccc(Cl)c1Cl` (centres unmarked) [Example 161, (2,3-Dichlorophenyl)(1-(3-fluoropyridin-2-yl)-6-methyl-6,7-dihydro-1H-[1,2,3]triazolo[4,5-c]pyridin-5(4H)-yl)methanone] was run?
The value was −0.9 % control.

For `CC1c2nnn(-c3cc[nH]n3)c2C=CN1C(=O)c1cccc(C(F)(F)F)c1Cl` (centres unmarked) [Example 86, 5-{[2-Chloro-3-(trifluoromethyl)phenyl]carbonyl}-4-methyl-1-(1H-pyrazol-3-yl)-4,5-dihydro-1H-[1,2,3]triazolo[4,5-c]pyridine], which “PBMC 10 μM (% control)” value is on record?
Its value is 13.0 % control.

With `CC1Cc2c(nnn2-c2cnccn2)CN1C(=O)c1cccc(C(F)(F)F)c1Cl` (centres unmarked) [Example 209, 5-{[2-Chloro-3-(trifluoromethyl)phenyl]carbonyl}-6-methyl-1-pyrazin-2-yl-4,5,6,7-tetrahydro-1H-[1,2,3]triazolo[4,5-c]pyridine] as the compound, how does the “PBMC 10 μM (% control)” value read?
Its value is −1.0 % control.

For `C[C@H]1Cc2c(nnn2-c2ncc(F)cn2)CN1C(=O)c1ccnc(C(F)(F)F)c1Cl` (single isomer, unassigned) [Example 183, (R*)-(3-chloro-2-(trifluoromethyl)pyridin-4-yl)(1-(5-fluoropyrimidin-2-yl)-6-methyl-6,7-dihydro-1H-[1,2,3]triazolo[4,5-c]pyridin-5(4H)-yl)methanone], which “PBMC 10 μM (% control)” value is on record?
The value was −1.2 % control.

`C[C@@H]1c2nnn(-c3cc[nH]n3)c2CCN1C(=O)c1cccc(C(F)(F)F)c1Cl` (single isomer, unassigned) [Example 133, (R*)-(2-Chloro-3-(trifluoromethyl)phenyl)(4-methyl-1-(1H-pyrazol-5-yl)-6,7-dihydro-1H-[1,2,3]triazolo[4,5-c]pyridin-5(4H)-yl)methanone] was tested. Which “PBMC 10 μM (% control)” value did it give?
The value was −0.2 % control.

How did the “PBMC 10 μM (% control)” value turn out when `CC1Cc2c(nnn2-c2ccccc2)C(C)N1C(=O)c1cccc(C(F)(F)F)c1Cl` (centres unmarked) [Example 240, (2-Chloro-3-(trifluoromethyl)phenyl)(4,6-dimethyl-1-phenyl-6,7-dihydro-1H-[1,2,3]triazolo[4,5-c]pyridin-5(4H)-yl)methanone] was run?
The value was −8.9 % control.

`C[C@@H]1c2ncn(-c3ncc(F)cn3)c2CCN1C(=O)c1cccc(C(F)(F)F)c1Cl` (single isomer, unassigned) [Example 193, (R*)-(2-Chloro-3-(trifluoromethyl)phenyl)(1-(5-fluoropyrimidin-2-yl)-4-methyl-6,7-dihydro-1H-imidazo[4,5-c]pyridin-5(4H)-yl)methanone] was tested. Which “PBMC 10 μM (% control)” value did it give?
The value was 1.4 % control.

How did the “PBMC 10 μM (% control)” value turn out when `Cc1cc(-n2nnc3c2CCN(C(=O)c2ccnc(C(F)(F)F)c2F)[C@H]3C)ncc1F` (single isomer, unassigned) [Example 369, (S*)-(3-fluoro-2-(trifluoromethyl)pyridin-4-yl)(1-(5-fluoro-4-methylpyridin-2-yl)-4-methyl-6,7-dihydro-1H-[1,2,3]triazolo[4,5-c]pyridin-5(4H)-yl)methanone] was run?
The value was 74.5 % control.

Which “PBMC 10 μM (% control)” value does the source give for `CC1CN(C(=O)c2cccc(Cl)c2Cl)Cc2nnn(-c3ccc(F)cc3)c21` (centres unmarked) [Example 247, (2,3-Dichlorophenyl)(1-(4-fluorophenyl)-7-methyl-6,7-dihydro-1H-[1,2,3]triazolo[4,5-c]pyridin-5(4H)-yl)methanone] here?
The value was −0.8 % control.

For `C[C@H]1c2nnn(-c3ncc(F)cn3)c2CCN1C(=O)c1cccc(C(F)(F)F)c1Cl` (single isomer, unassigned) [Example 157, (S*)-(2-Chloro-3-(trifluoromethyl)phenyl)(1-(5-fluoropyrimidin-2-yl)-4-methyl-6,7-dihydro-1H-[1,2,3]triazolo[4,5-c]pyridin-5(4H)-yl)methanone], which “PBMC 10 μM (% control)” value is on record?
Its value is −1.4 % control.

With `CC1c2nn(COCC[Si](C)(C)C)c(-c3ncc(F)cn3)c2CCN1C(=O)c1cccc(C(F)(F)F)c1Cl` (centres unmarked) [Example 303, (2-chloro-3-(trifluoromethyl)phenyl)(3-(5-fluoropyrimidin-2-yl)-7-methyl-2-((2-(trimethylsilyl)ethoxy)methyl)-4,5-dihydro-2H-pyrazolo[3,4-c]pyridin-6(7H)-yl)methanone] as the compound, how does the “PBMC 10 μM (% control)” value read?
Its value is −1.6 % control.

With `Cc1ccnc(-n2nnc3c2CCN(C(=O)c2cccc(OC(F)(F)F)c2)[C@@H]3C)c1` (single isomer, unassigned) [Example 376, (R*)-(4-methyl-1-(4-methylpyridin-2-yl)-6,7-dihydro-1H-[1,2,3]triazolo[4,5-c]pyridin-5(4H)-yl)(3-(trifluoromethoxy)phenyl)methanone] as the compound, how does the “PBMC 10 μM (% control)” value read?
The value was 96.3 % control.

With `CCc1cccnc1-n1nnc2c1CCN(C(=O)c1cccc(C(F)(F)F)c1Cl)C2C` (centres unmarked) [Example 254, (2-Chloro-3-(trifluoromethyl)phenyl)(1-(3-ethylpyridin-2-yl)-4-methyl-6,7-dihydro-1H-[1,2,3]triazolo[4,5-c]pyridin-5(4H)-yl)methanone] as the compound, how does the “PBMC 10 μM (% control)” value read?
The value was 0.9 % control.

How did the “PBMC 10 μM (% control)” value turn out when `CC1CN(C(=O)c2cccc(C(F)(F)F)c2Cl)Cc2nnn(-c3ccccc3)c21` (centres unmarked) [Example 245, (2-Chloro-3-(trifluoromethyl)phenyl)(7-methyl-1-phenyl-6,7-dihydro-1H-[1,2,3]triazolo[4,5-c]pyridin-5(4H)-yl)methanone] was run?
The value was −7.3 % control.

Which “PBMC 10 μM (% control)” value does the source give for `CC1c2nnn(-c3cncnc3)c2CCN1C(=O)c1cccc(C(F)(F)F)c1Cl` (centres unmarked) [Example 177, (2-Chloro-3-(trifluoromethyl)phenyl)(4-methyl-1-(pyrimidin-5-yl)-6,7-dihydro-1H-[1,2,3]triazolo[4,5-c]pyridin-5(4H)-yl)methanone] here?
The value was 8.6 % control.

With `O=C(c1cccc(Cl)c1Cl)N1CCc2c(ncn2-c2ccn[nH]2)C1` [Example 60, 5-[(2,3-Dichlorophenyl)carbonyl]-1-(1H-pyrazol-5-yl)-4,5,6,7-tetrahydro-1H-imidazo[4,5-c]pyridine] as the compound, how does the “PBMC 10 μM (% control)” value read?
Its value is 8.4 % control.

same assay, conditions: test compound 10 μM, LPS 30 ng/ml + 0.5 mM Bz-ATP

With `C[C@H]1Cc2c(nnn2-c2ncc(F)cn2)CN1C(=O)c1ccnc(C(F)(F)F)c1Cl` (single isomer, unassigned) [Example 183, (R*)-(3-chloro-2-(trifluoromethyl)pyridin-4-yl)(1-(5-fluoropyrimidin-2-yl)-6-methyl-6,7-dihydro-1H-[1,2,3]triazolo[4,5-c]pyridin-5(4H)-yl)methanone] as the compound, how does the “PBMC 10 μM (% control)” value read?
The value was −1.2 % control.

`C[C@@H]1c2ncn(-c3ncc(F)cn3)c2CCN1C(=O)c1cccc(C(F)(F)F)c1Cl` (single isomer, unassigned) [Example 193, (R*)-(2-Chloro-3-(trifluoromethyl)phenyl)(1-(5-fluoropyrimidin-2-yl)-4-methyl-6,7-dihydro-1H-imidazo[4,5-c]pyridin-5(4H)-yl)methanone] was tested. Which “PBMC 10 μM (% control)” value did it give?
Its value is 1.4 % control.
